Experiments:
MAP kinase = experiment: Activation (phosphorylation) of MAP kinase by Western immunoblotting in cultured cerebral cortex nerve cells; type: cell-based, rat; design: pMAPK/MAPK: unit not given here; settings: for Ratio of pMAPK to MAPK: Test Example 6, relative to control (0 μg/mL = 1.0)
Method: With regard to the compound 1 ((E)-2-(dimethylamino)-ethyl dec-2-enoate), activation of MAP kinase was measured as follows by a Western immunoblotting.
Nerve cells were dispersed from cerebral cortex of a fetal rat of 17 days age and said nerve cells were cultured for one day in a Dulbecco-modified Eagle medium (DMEM) containing 5% fetal bovine serum. The culture medium was exchanged with a serum-free medium (B27 supplement-added Neurobasal; Invitrogen) and the nerve cells were cultured at the density of 20,000 to 40,000 cells per cm^2 in a culture dish coated with polyornithine.
After three days, the compound 1 was added and the culture was continued for 30 minutes. After that, the cells were recovered on ice using a solution containing a phosphatase inhibitor where Tris-HCl buffer was a base. Protein concentration of the resulting cell extract was quantified using a BCA Protein Assay Kit (Takara Bio KK) and a certine amount of protein (3 μg for the measurement of MAP kinase and 5 μg for the measurement of phosphorylated MAP kinase) was subjected to polyacrylamide gel electrophoresis. The protein was transcribed from the gel after the electrophoresis to a PVDF membrane and a Western immunoblotting was carried out using each of an anti-MAP kinase antibody (Cell Signaling Technology) and an anti-phosphorylated MAP kinase antibody (Cell Signaling Technology) of the primary antibody.
After that, the reaction with an alkaline phosphatase-labeled anti-rabbit IgG antibody (Promega) of the secondary antibody was carried out so that the enzymatic activity was colorized whereupon the MAP kinase and the phosphorylated MAP kinase were measured.
Incidentally, the compound 1 was adjusted to the concentrations of 10 μg/ml, 30 μg/ml, 100 μg/ml and 300 μg/ml by dissolving in 0.1% DMSO. With regard to the control, 0.1% DMSO was added.
Intensity of the concentration of the above-obtained band of the gel subjected to electrophoresis was calculated and quantified using Image J (K. K. Bioarts). The numerical value for the MAP kinase using the compound 1 was divided by the numerical value for the MAP kinase of the control and, further, the numerical value for the phosphorylated MAP kinase using the compound 1 was divided by the numerical value for the phosphorylated MAP kinase of the control whereupon the ratio of the MAP kinase using the compound 1 to the control and the ratio of the phosphorylated kinase using the compound 1 to the control were determined.
After that, the resulting ratio of the phosphorylated MAP kinase to the control was divided by the resulting ratio of the MAP kinase to the control to determine the ratio of the phosphorylated MAP kinase to the MAP kinase (cf. Table 5). In Table 5, “MAPK” means a MAP kinase and “pMAPK” means a phosphorylated MAP kinase. “10”, “30”, “100” and “300” in Table 5 show the examples where 10 μg/ml, 30 μg/ml, 100 μg/ml and 300 μg/ml of the compound 1 were added.
MAP kinase and phosphorylated MAP kinase were measured for the compound 6 ((E)-2-(diethylamino)ethyl dec-2-enoate) and the compound 13 ((E)-2-(2-(diethylamino)ethoxy)ethyl dec-2-enoate) by the same method as in Test Example 1.
Each of the compounds 6 and 13 was dissolved in 0.1% DMSO to adjust to the concentration of 250 μg/ml. With regard to the control, 0.1% DMSO was added. With regard to the concentration of the resulting band of the gel subjected to electrophoresis, its intensity was calculated by the same method as in Test Example 1 using Image J (K. K. Bioarts) and the ratio of the phosphorylated MAP kinase to the control was divided by the resulting ratio of the MAP kinase to the control whereupon the ratio of the phosphorylated MAP kinase to the MAP kinase was determined (cf. Table 6).
With regard to the compound of the present invention, its activation for MAP kinase was measured by the same manner as in Test Example 1.
Each compound was dissolved in 0.1% DMSO to adjust to the concentrations of 30 μg/ml, 60 μg/ml, 125 μg/ml and 250 μg/ml. […]

[1] = system: male mice injected with corticosterone; experiment: Tail suspension test in mice administered corticosterone; type: in vivo; settings: after two weeks, control 141.15 seconds
Method: Corticosterone suspended in oil was hypodermically injected to male mice of seven weeks age (n=3 to 5) in a dose of […] every day for three weeks. At the same time, the compound of the present invention dissolved in PBS or in a PBS solvent containing DMSO, etc. was orally administered every day for three weeks. After one, two and three week(s), the suppressive effect for depressive symptom was evaluated by a tail suspension test in the same manner as in the above Test Example 7. Incidentally, the test for significance was conducted by a Student's t-test.

[2] = system: chronic mild stress-induced depression model mice; experiment: Tail suspension test in chronic mild stress-induced depression model mice; type: in vivo; settings: control 103.18±15.96 seconds
Method: Female ddY strain mice of seven weeks age (n=8 to 12) were (A) subjected to forced swimming for 15 minutes and then to normal breeding for two clays, (B) subjected to breeding in an inclined cage for two days and then to normal breeding for one day, (C) subjected to breeding for one day where the floor mat was made wet and then to normal breeding for one day and (D) subjected to breeding for one day using a cage which was rotated at the rate of 180 rotations/minute and then to normal breeding for one clay. Further, (B) to (D) were repeated for two times and stress was loaded for three weeks in total to prepare chronic mild stress-induced depression model mice. During that time, the compound of the present invention dissolved in PBS or in a PBS solvent containing DMSO, etc. was orally administered once daily for three weeks and, after that, the suppressive effect for depressive symptom was evaluated by means of a tail suspension test. Thus, the area which was 1 cm from the tip of the tail of a mouse was grasped with hand and kept at the height of 10 cm from the floor, an observation was conducted for six minutes and the length of immobility time which is an index for the depressive symptom was measured. Incidentally, the test of significance was carried out by a one-way ANOVA, Tukey's Multiple Comparison Test.

[3] = system: chronic mild stress-induced depressive model mice; experiment: Spontaneous alternation behavior test (Y-maze test) in chronic mild stress-induced depressive model mice; type: in vivo
Method: The same operation as in the above Test Example 7 was conducted to prepare chronic mild stress-induced depressive model mice (n=8 to 12). During that time, the compound of the present invention dissolved in PBS or in a PBS solvent containing DMSO, etc. was orally administered once daily for three weeks and, after that, evaluation for learning and memorizing behaviors was conducted by means of a spontaneous alternation behavior test (Y-maze test). Thus, an animal was placed at the front end of any arm in the Y-maze and allowed to freely walk in the maze for ten minutes, the arms into which the animal entered were successively recorded and the entry numbers of the animal into each arm within a measuring time (total arm entries) and the combined entry numbers into continuously different three arms (alternating behavior numbers) were checked. The alternating behavior rate (%) was calculated by the following expression and the spontaneous alternating behavior was evaluated as an index of short-term memory. Incidentally, the test of significance was conducted by a one-way ANOVA, Tukey's Multiple Comparison Test. Alternating behavior rate (%)=(Alternating behavior numbers)/(Total arm entries−2)×100

[4] = 10 μg/ml, 30 minutes, fetal rat cerebral cortex nerve cells
[5] = 30 μg/ml, 30 minutes, fetal rat cerebral cortex nerve cells
[6] = 100 μg/ml, 30 minutes, fetal rat cerebral cortex nerve cells

In the case of CCCCCCC/C=C/C(=O)OCCN(CC)CC [Compound 6, (E)-2-(diethylamino)ethyl dec-2-enoate], the pMAPK/MAPK/Control (MAP kinase; 250 μg/ml, Test Example 2, control = 1.00) is reported as 1.72, the “immobility time (tail suspension test)” value ([1]; 300 μg/kg orally every day) is reported as 60.37 s and the “immobility time (tail suspension test)” value ([2]; 1,500 orally once daily for three weeks) is reported as 80.67 ± 23.94 s. It also gave an alternating behavior rate ([3]; 300 μg/kg orally once daily for three weeks, control 60.21±2.39%) of 75.40±3.22%.
For CCCCCCC/C=C/C(=O)NCCN(C)C [Compound 36, (E)-N-2-(dimethylamino)ethyl dec-2-enamide], the “Ratio of pMAPK to MAPK” value (MAP kinase; 30 μg/mL) was 1.6, the “Ratio of pMAPK to MAPK” value (MAP kinase; 60 μg/mL) was 5.1 and the “Ratio of pMAPK to MAPK” value (MAP kinase; 125 μg/mL) was 0.5. The “immobility time (tail suspension test)” value ([1]; 300 μg/kg orally every day) was 41.63 s and the alternating behavior rate ([3]; 1,500 μg/kg orally once daily for three weeks, control 61.76±2.01%) was 71.52±2.50%.
In the case of CCCCCCC/C=C/C(=O)NCCN(CC)CC [Compound 37, (E)-N-2-(diethylamino)ethyl dec-2-enamide], the “Ratio of pMAPK to MAPK” value (MAP kinase; 60 μg/mL) is reported as 3.4, the “Ratio of pMAPK to MAPK” value (MAP kinase; 125 μg/mL) is reported as 3.4 and the “Ratio of pMAPK to MAPK” value (MAP kinase; 250 μg/mL) is reported as 4.9.
For CCCCCCC/C=C/C(=O)OCCN(C)C [Compound 1, (E)-2-(dimethylamino)ethyl dec-2-enoate], the pMAPK/MAPK (MAP kinase; [4]) was 674, the pMAPK/MAPK/Control (MAP kinase; [4]) was 1.38 and the pMAPK/MAPK (MAP kinase; [5]) was 1071. The pMAPK/MAPK/Control (MAP kinase; [5]) was 2.20, the pMAPK/MAPK (MAP kinase; [6]) was 1043 and the pMAPK/MAPK/Control (MAP kinase; [6]) was 2.14. For the same compound, the pMAPK/MAPK (MAP kinase; 300 μg/ml, 30 minutes, fetal rat cerebral cortex nerve cells) was 2234.
In the case of CCCCCCC/C=C/C(=O)SCCN(C)C [Compound 55, (E)-S-2-(dimethylamino)ethyl dec-2-enethioate], the “Ratio of pMAPK to MAPK” value (MAP kinase; 30 μg/mL) is reported as 4.6, the “Ratio of pMAPK to MAPK” value (MAP kinase; 60 μg/mL) is reported as 8.6 and the “Ratio of pMAPK to MAPK” value (MAP kinase; 125 μg/mL) is reported as 16.0. For the same compound, the “immobility time (tail suspension test)” value ([1]; 1,500 μg/kg orally every day) was 86.71 s and the “immobility time (tail suspension test)” value ([2]; 1,500 μg/kg orally once daily for three weeks) was 63.72 ± 10.13 s.
